Test results reported in ChEMBL document CHEMBL1153116, “Bio-transformation of artemisinin using soil microbe: Direct C-acetoxylation of artemisinin at C-9 by Penicillium simplissimum” (2010).

Tests used:
Format in all cases: functional
IGROV-1 [1] = test: Antitumor activity against human IGROV1 cells at 50 uM after 48 hrs by Sulforhodamine assay; conditions: IGROV-1, 48 h, read-out: GI
SW-620 [2] = test: Antitumor activity against human SW620 cells at 50 uM after 48 hrs by Sulforhodamine assay; conditions: SW-620, 48 h, read-out: GI
IMR-32 [3] = test: Antitumor activity against human IMR32 cells at 50 uM after 48 hrs by Sulforhodamine assay; conditions: IMR-32, 48 h, read-out: GI
HCT-15 [4] = test: Antitumor activity against human HCT15 cells at 50 uM after 48 hrs by Sulforhodamine assay; conditions: HCT-15, 48 h, read-out: GI
A549 [5] = test: Antitumor activity against human A549 cells at 50 uM after 48 hrs by Sulforhodamine assay; conditions: A549, 48 h, read-out: GI
IMR-32 [6] = test: Antitumor activity against human IMR32 cells at 1 uM after 48 hrs by Sulforhodamine assay; conditions: IMR-32, 48 h, read-out: GI
SW-620 [7] = test: Antitumor activity against human SW620 cells at 20 uM after 48 hrs by Sulforhodamine assay; conditions: SW-620, 48 h, read-out: GI
HCT-15 [8] = test: Antitumor activity against human HCT15 cells at 20 uM after 48 hrs by Sulforhodamine assay; conditions: HCT-15, 48 h, read-out: GI
A549 [9] = test: Antitumor activity against human A549 cells at 10 uM after 48 hrs by Sulforhodamine assay; conditions: A549, 48 h, read-out: GI
IGROV-1 [10] = test: Antitumor activity against human IGROV1 cells at 10 uM after 48 hrs by Sulforhodamine assay; conditions: IGROV-1, 48 h, read-out: GI

Row | SMILES | inhibition of growth at 50 µM (IGROV-1 [1]) [%] | inhibition of growth at 50 µM (SW-620 [2]) [%] | inhibition of growth at 50 µM (IMR-32 [3]) [%] | inhibition of growth at 50 µM (HCT-15 [4]) [%] | inhibition of growth at 50 µM (A549 [5]) [%] | further results
1 | C[C@@H]1CC[C@H]2[C@@H](C)C(=O)O[C@@H]3O[C@@]4(C)OO[C@@]32[C@H]1C[C@H]4O | 3 | 0 | 20 | 28 | 18 | –
2 | CC(=O)O[C@H]1C[C@H]2[C@H](C)CC[C@H]3[C@@H](C)C(=O)O[C@@H]4O[C@@]1(C)OO[C@]423 | 10 | 0 | 31 | 32 | 28 | –
3 | C[C@@H]1CC[C@H]2[C@@H](C)C(=O)O[C@@H]3O[C@@]4(C)CC[C@@H]1[C@]32OO4 [ARTEMISININ] | 26 | 35 | 23 | 31 | 29 | –
4 | COc1cccc2c1C(=O)c1c(O)c3c(c(O)c1C2=O)C[C@@](O)(C(=O)CO)C[C@@H]3O[C@H]1C[C@H](N)[C@H](O)[C@H](C)O1 [DOXORUBICIN] | – | – | – | – | – | inhibition of growth at 1 µM (IMR-32 [6]): 72%
5 | O=c1[nH]cc(F)c(=O)[nH]1 [FLUOROURACIL] | – | – | – | – | – | inhibition of growth at 20 µM (SW-620 [7]): 54%; inhibition of growth at 20 µM (HCT-15 [8]): 49%
6 | CC(=O)O[C@H]1C(=O)[C@@]2(C)[C@H]([C@H](OC(=O)c3ccccc3)[C@]3(O)C[C@H](OC(=O)[C@H](O)[C@@H](NC(=O)c4ccccc4)c4ccccc4)C(C)=C1C3(C)C)[C@]1(OC(C)=O)CO[C@@H]1C[C@@H]2O [PACLITAXEL] | – | – | – | – | – | inhibition of growth at 10 µM (A549 [9]): 52%; inhibition of growth at 10 µM (IGROV-1 [10]): 56%
